Measured values from patent US12371439B2, “Crystalline form B of tetrahydrothienopyridine compound, preparation method, composition and application thereof” (Chengdu Shibeikang Biomedical Technology Co. Ltd., priority 2019, dated 2025).

Assay: Stability investigation of the crystalline forms (HPLC purity, samples placed open and flat)
Assay type: physicochemical
Protocol: The crystalline forms of the compound of formula I obtained from each example and each comparative preparation example were analyzed by HPLC.
Instrument and equipment: Agilent-1100 High Performance Liquid Chromatograph;
Chromatographic conditions and system suitability test: octadecylsilane-bonded silica gel was used as a filler; water (pH adjusted to 3.8 with phosphoric acid):acetonitrile (45:55) was used as a mobile phase; detection wavelength was 220 nm; theoretical tower plate number should not be less than 2000; the resolution should not be less than 2.0; and the resolution from other adjacent impurity peaks should meet the requirements.
Test solution: an appropriate amount of the compound obtained from each example was accurately weighed, dissolved in anhydrous ethanol, and diluted quantitatively to prepare a solution containing about 1 mg compound per 1 ml solution as the test solution.
Reference solution: 1 ml of reference solution of the compound of formula I was accurately measured, and placed into a 100 ml volumetric flask, diluted with anhydrous ethanol to the scale, and shaken well to obtain the reference solution. Reference substance: calibrated standard substance of the compound of formula I provided by Chengdu Shibeikang Biomedical Technology Co., Ltd.
Determination method: according to General Chapter 0512 High Performance Liquid Chromatography in Chinese Pharmacopoeia (2015 Edition) Volume IV, 10 μl of the test solution and 10 μl of the reference solution were accurately measured respectively, and injected into the liquid chromatograph to record chromatograms.
Samples of the crystalline form B from each Example and the crystalline form from each comparative preparation example were placed in an open and flat way to investigate 5-day stability and 10-day stability of the samples under the conditions of light (4500 Lux), heating at 40° C. and 60° C. and high humidity of 75% and 90%, respectively. The detection was carried out according to the determination method in Test 1, and HPLC purity detection results were shown in the table below.

| Structure (SMILES) | HPLC purity Day 0 (%) (heating at 40° C.) | HPLC purity Day 5 (%) (heating at 40° C.) | HPLC purity Day 10 (%) (heating at 40° C.) | HPLC purity Day 0 (%) (heating at 60° C.) | HPLC purity Day 5 (%) (heating at 60° C.) | HPLC purity Day 10 (%) (heating at 60° C.) | HPLC purity Day 0 (%) (high humidity of 90%) | HPLC purity Day 5 (%) (high humidity of 90%) | HPLC purity Day 10 (%) (high humidity of 90%) | HPLC purity Day 0 (%) (light (4500 Lux)) | HPLC purity Day 5 (%) (light (4500 Lux)) | HPLC purity Day 10 (%) (light (4500 Lux)) |
| --- | --- | --- | --- | --- | --- | --- | --- | --- | --- | --- | --- | --- |
| COC(=O)[C@H](c1ccccc1Cl)N1CC[C@@H]2SC(=O)C=C2C1 [Example 3, methyl (S)-2-(2-chlorophenyl)-2-((S)-2-oxo-2,6,7,7a-tetrahydrothieno[3,2-c]pyridin-5(4H)-yl)acetate] | 99.94% | 99.93% | 99.93% | 99.94% | 99.90% | 99.88% | 99.94% | 99.94% | 99.94% | 99.94% | 99.94% | 99.94% |
| COC(=O)[C@H](c1ccccc1Cl)N1CC[C@@H]2SC(=O)C=C2C1 [Example 1, methyl (S)-2-(2-chlorophenyl)-2-((S)-2-oxo-2,6,7,7a-tetrahydrothieno[3,2-c]pyridin-5(4H)-yl)acetate] | 99.82% | 99.82% | 99.81% | 99.82% | 99.79% | 99.77% | 99.82% | 99.82% | 99.81% | 99.82% | 99.82% | 99.82% |
| COC(=O)[C@H](c1ccccc1Cl)N1CC[C@@H]2SC(=O)C=C2C1 [Example 2, methyl (S)-2-(2-chlorophenyl)-2-((S)-2-oxo-2,6,7,7a-tetrahydrothieno[3,2-c]pyridin-5(4H)-yl)acetate] | 99.92% | 99.92% | 99.91% | 99.92% | 99.87% | 99.84% | 99.92% | 99.92% | 99.91% | 99.92% | 99.92% | 99.92% |
| COC(=O)[C@H](c1ccccc1Cl)N1CC[C@@H]2SC(=O)C=C2C1 (racemic) [Comparative preparation example 2, methyl (S)-2-(2-chlorophenyl)-2-((S)-2-oxo-2,6,7,7a-tetrahydrothieno[3,2-c]pyridin-5(4H)-yl)acetate, reference compound] | 96.43% | 96.01% | 94.78% | 96.43% | 95.23% | 93.89% | 96.43% | 96.33% | 96.23% | 96.43% | 96.35% | 96.27% |
| COC(=O)[C@H](c1ccccc1Cl)N1CC[C@@H]2SC(=O)C=C2C1 (racemic) [Comparative preparation example 3, methyl (S)-2-(2-chlorophenyl)-2-((S)-2-oxo-2,6,7,7a-tetrahydrothieno[3,2-c]pyridin-5(4H)-yl)acetate, reference compound] | 97.73% | 97.22% | 96.13% | 97.73% | 96.60% | 95.23% | 97.73% | 97.66% | 97.58% | 97.73% | 97.70% | 97.65% |
| COC(=O)[C@H](c1ccccc1Cl)N1CC[C@@H]2SC(=O)C=C2C1 [Example 6, methyl (S)-2-(2-chlorophenyl)-2-((S)-2-oxo-2,6,7,7a-tetrahydrothieno[3,2-c]pyridin-5(4H)-yl)acetate] | 99.91% | 99.91% | 99.90% | 99.91% | 99.89% | 99.88% | 99.91% | 99.91% | 99.90% | 99.91% | 99.91% | 99.90% |
| COC(=O)[C@H](c1ccccc1Cl)N1CC[C@@H]2SC(=O)C=C2C1 [Example 4, methyl (S)-2-(2-chlorophenyl)-2-((S)-2-oxo-2,6,7,7a-tetrahydrothieno[3,2-c]pyridin-5(4H)-yl)acetate] | 99.89% | 99.89% | 99.88% | 99.89% | 99.87% | 99.86% | 99.89% | 99.89% | 99.89% | 99.89% | 99.89% | 99.89% |
| COC(=O)[C@H](c1ccccc1Cl)N1CC[C@@H]2SC(=O)C=C2C1 [Example 5, methyl (S)-2-(2-chlorophenyl)-2-((S)-2-oxo-2,6,7,7a-tetrahydrothieno[3,2-c]pyridin-5(4H)-yl)acetate] | 99.87% | 99.87% | 99.87% | 99.87% | 99.85% | 99.85% | 99.87% | 99.87% | 99.86% | 99.87% | 99.87% | 99.86% |
| COC(=O)[C@H](c1ccccc1Cl)N1CC[C@@H]2SC(=O)C=C2C1 [Example 7, methyl (S)-2-(2-chlorophenyl)-2-((S)-2-oxo-2,6,7,7a-tetrahydrothieno[3,2-c]pyridin-5(4H)-yl)acetate] | 99.88% | 99.88% | 99.88% | 99.88% | 99.85% | 99.84% | 99.88% | 99.88% | 99.87% | 99.88% | 99.88% | 99.87% |
| COC(=O)[C@H](c1ccccc1Cl)N1CC[C@@H]2SC(=O)C=C2C1 (racemic) [Comparative preparation example 1, methyl (S)-2-(2-chlorophenyl)-2-((S)-2-oxo-2,6,7,7a-tetrahydrothieno[3,2-c]pyridin-5(4H)-yl)acetate, reference compound] | 96.89% | 96.31% | 95.35% | 96.89% | 95.45% | 94.37% | 96.89% | 96.75% | 96.69% | 96.89% | 96.80% | 96.75% |
